Results published in PMC2229834 (Molecular Microbiology, 2007).

How the values were obtained:
[1] = target: T1, E. coli PTPS (EcPTPS) (Escherichia coli, UniProt P65870); assay: HPLC with fluorescence of iodine-oxidised pterin products; format: biochemical; details: 9 uM DHNTP, 10 mM MgCl2, 2 mM DTT, pH 8.0, 37 C, 1 h
T1 sequence (P65870 1-121): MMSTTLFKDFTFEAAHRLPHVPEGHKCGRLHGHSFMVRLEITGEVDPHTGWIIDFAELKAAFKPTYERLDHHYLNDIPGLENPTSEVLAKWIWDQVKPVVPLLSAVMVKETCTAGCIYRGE

[2] = target: T2, human PTPS (HsPTPS) (Homo sapiens, UniProt Q03393); assay: as above; format: biochemical; details: 9 uM DHNTP, 10 mM MgCl2, 2 mM DTT, pH 8.0, 37 C, 1 h
T2 sequence (Q03393 1-145): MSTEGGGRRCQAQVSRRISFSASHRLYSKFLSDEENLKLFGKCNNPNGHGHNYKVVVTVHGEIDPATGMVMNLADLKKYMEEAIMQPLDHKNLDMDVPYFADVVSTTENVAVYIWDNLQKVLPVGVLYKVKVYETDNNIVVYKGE

Structure (SMILES): Nc1nc2c(c(=O)[nH]1)N=C([C@H](O)[C@H](O)COP(=O)(O)OP(=O)(O)OP(=O)(O)O)CN2 [DHNTP]
- HPLC with fluorescence of iodine-oxidised pterin products [1]: Both the bacterial and human enzymes converted DHNTP to PTP as expected
- HPLC with fluorescence of iodine-oxidised pterin products [2]: Both the bacterial and human enzymes converted DHNTP to PTP as expected
